Measurements from PubChem BioAssay (NCI).
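Results reflect a 48-hour exposure of cells in 96-well plates to compound at five concentrations. TGI denotes the concentration required for complete inhibition of growth.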

Legend:
Experiment in all cases: NCI tumour cell line growth inhibition, 48 h
SN12K1 renal = test system: SN12K1 renal
SF-539 CNS = test system: SF-539 CNS
HT29 colon = test system: HT29 colon
MOLT-4 leukemia = test system: MOLT-4 leukemia
HOP-18 NSCLC = test system: HOP-18 NSCLC
UACC-62 melanoma = test system: UACC-62 melanoma
SNB-78 CNS = test system: SNB-78 CNS
DMS 273 small cell lung = test system: DMS 273 small cell lung
P388 leukemia = test system: P388 leukemia
OVCAR-4 ovarian = test system: OVCAR-4 ovarian
M14 melanoma = test system: M14 melanoma
HS 578T breast = test system: HS 578T breast
MDA-N = test system: MDA-N
DU-145 prostate = test system: DU-145 prostate
BT-549 breast = test system: BT-549 breast
SR leukemia = test system: SR leukemia
ACHN renal = test system: ACHN renal
TK-10 renal = test system: TK-10 renal
MDA-MB-231 breast = test system: MDA-MB-231 breast
T-47D breast = test system: T-47D breast

SMILES | TGI (SN12K1 renal) [µM] | TGI (SF-539 CNS) [µM] | TGI (HT29 colon) [µM] | TGI (MOLT-4 leukemia) [µM] | TGI (HOP-18 NSCLC) [µM] | TGI (UACC-62 melanoma) [µM] | TGI (SNB-78 CNS) [µM] | TGI (DMS 273 small cell lung) [µM] | TGI (P388 leukemia) [µM] | TGI (OVCAR-4 ovarian) [µM] | TGI (M14 melanoma) [µM] | TGI (HS 578T breast) [µM] | TGI (MDA-N) [µM] | TGI (DU-145 prostate) [µM] | TGI (BT-549 breast) [µM] | TGI (SR leukemia) [µM] | TGI (ACHN renal) [µM] | TGI (TK-10 renal) [µM] | TGI (MDA-MB-231 breast) [µM] | TGI (T-47D breast) [µM]
CC1(C)N=C(N)N=C(N)N1c1ccc(CCc2ccccc2)cc1 | > 100 | 82.8 | > 100 | > 100 | 97.3 | > 100 | > 100 | 17.5 | 12.3 | > 100 |  |  |  |  |  |  |  |  |  | 
O=c1cnn(C/C=C/CO)c(=O)[nH]1 |  |  |  |  |  |  |  |  |  |  | > 100 | > 100 | > 100 | > 100 | > 100 | > 100 | > 100 | > 100 | > 100 | > 100
